Source: patent US11591334B2, “Substituted pyrrolizines for the treatment of hepatitis B” (SHANGHAI LONGWOOD BIOPHARMACEUTICALS CO., LTD., priority 2017, dated 2023)
Read-outs that look alike come from different tables or passages of the source.

What was measured:
C150 protein = biological target: T1, C150 protein (Hepatitis B virus genotype D subtype adw, UniProt P03147, C107A/C48A/C61A/R150C); experiment: In vitro anti-HBV nucleocapsid assembly activity test (Experiment 1, protein experiment); type: biochemical
T1 construct: purchased WuXi Apptec Co., Ltd
T1 sequence (P03147 1-150 C48A/C61A/C107A/R150C): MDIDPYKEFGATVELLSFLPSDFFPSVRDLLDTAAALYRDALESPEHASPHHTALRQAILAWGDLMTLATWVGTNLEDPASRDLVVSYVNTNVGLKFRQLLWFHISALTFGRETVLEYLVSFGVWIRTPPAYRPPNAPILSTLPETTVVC
Procedure: Experiment 1: In Vitro Anti-HBV Nucleocapsid Assembly Activity Test
Main Reagents and Raw Materials:
C150 protein was expressed and purified by WuXi Apptec Co., Ltd.
BoDIPY® FL was purchased from Thermo Fisher Scientific.
Protein Fluorescent Label:
150 μL of 2% w/v skimmed milk was added into each well of 96-well plate, and incubated at room temperature for 2 hours. The skimmed milk was aspirated. The plate was washed with deionized water and dried, and stored at room temperature. C150 protein (3 mg per tube) was desalted with 5 ml Hitrap desalting column. The desalted C150 protein of each tube was added with 50 mM BoDIPY® FL Fluorescent Dye (20 μl), and incubated under 4° C. overnight in the dark after well mixed. Sephadex G-25 gel was used for filtration to remove fluorescent dyes that were not bounded onto C150. The C150 fluorescent labeling efficiency was calculated according to the following equation: [BoDIPY®FL]=A504/78,000 M^−1; [C150Bo]=(A280−[BoDIPY®FL]×1300 M^−1)/60,900 M^−1; Fluorescent Labeling Efficiency=[BoDIPY®FL]/[C150Bo];
The mother liquor of compound was diluted with DMSO to 6 mM, then diluted to 600 μM with 50 mM HEPES, and then further 3-fold diluted with 10 DMSO/50 mM HEPES to 8 concentrations.
C150Bo was diluted to 2 μM with 50 mM HEPES. 37.5 μL of C150Bo and 2.5 μL of compound at each concentration were added into a 96 well plate and well mixed, then incubated at room temperature for 15 minutes. 10 μl of 750 mM NaCl/50 mM HEPES were added into the each reaction well, and the final concentration of NaCl was 150 mM.
Into the control wells in the 0% protein group 10 μL of 50 mM HEPES was added, and the final concentration of NaCl was 0 mM.
Into the control wells in the 100% protein group 10 μL of 5 M/50 mM HEPES was added, and the final concentration of NaCl was 1 M.
The final concentration of DMSO was 0.5%, the maximum final concentration of the compound was 30 μM, and final concentration of C150Bo was 1.5 μM. The mixture was incubated at room temperature for 1 hour. Fluorescence signal was measured (excitation light was 485 nm; emission light was 535 nm).
Data Analysis % protein assembly=[1−(Sample fluorescence value−1 M NaCl fluorescence value)/(0 M NaCl fluorescence value−1 M NaCl fluorescence value)]×100.
IC50 value was calculated by prism software, and the equation was as follows: Y=Bottom+(Top−Bottom)/(1+10^((LogIC50−X)HillSlope));

HBV = experiment: Determination of anti-HBV activity in HepG2.2.15 cell (Experiment 2, HBV DNA in supernatant by qPCR); type: cell-based; details: Hepatitis B virus; HepG2.2.15 cells, HBV DNA in supernatant on the eighth day, qPCR; read-out: Experiment 2 Cell experiment EC50
Procedure: Experiment 2: Determination of Anti-HBV Activity in HepG2.2.15 Cell
Compound dilution. All the compounds for in vitro anti-HBV activity assay and cytotoxicity assay were 3-fold diluted into 8 concentrations. The final concentration of the tested compound was 30 μM, the final starting concentration of reference compound GLS4 was 1 μM, and the final concentration of DMSO was 0.5%.
HepG2.2.15 cell (4×10^4 cell/well) was inoculated into 96 well plate, and cultured overnight in 37° C., 5% CO2. On the second day, fresh culture medium containing different concentrations of the compound was added into the culture wells. On the fifth day, the old culture solution in the culture well was aspirated and fresh culture medium containing different concentrations of the compound was added.
On the eighth day, the supernatant in the culture well was collected for extraction of HBV DNA, and the content of DNA in the supernatant of HepG2.2.15 HBV was detected by qPCR. After the supernatant was collected, the medium and Cell-titer Glo reagent were added into the culture well, and the chemiluminescence value of each well was measured by microplate reader.
The activity calculation formula was as follows: Y=Bottom+(Top−Bottom)/(1+10^((LogIC50−X)*Hillslope));

[1] = Determination of cytotoxicity (Experiment 3, resazurin assay); type: cell-based; details: human; HepG2 cells, incubated for 4 days, resazurin assay; read-out: Experiment 3 Cytotoxicity CC50
Procedure: Compound dilution. All the compounds for in vitro anti-HBV activity assay and cytotoxicity assay were 3-fold diluted into 8 concentrations. The final concentration of the tested compound was 30 μM, the final starting concentration of reference compound GLS4 was 1 μM, and the final concentration of DMSO was 0.5%. Experiment 3: Determination of Cytotoxicity The cytotoxicity of the test compound was tested using HepG2 cells. The cells were incubated for 4 days in the presence of the test compound. Cell activity was assessed using the resazurin assay.

[2] = fluorescently labeled C150 (C150Bo) 1.5 μM, 150 mM NaCl, 1 hour at room temperature, read-out: Experiment 1 Protein experiment IC50

CC(NC(=O)Nc1c(Cl)c(C(=O)Nc2ccnc(Cl)c2)n2c1CCC2)C(F)(F)F (stereo not drawn) [Compound 100b]
IC50 (C150 protein): 1 to 100 µM
EC50 (HBV): 0.0001 to 0.1 µM
CC50 at 4 days [1]: > 30 µM

CC(CO)NS(=O)(=O)c1c(Cl)c(C(=O)Nc2ccnc(C(F)F)c2)n2c1CCC2 (stereo not drawn) [Compound 20ee]
IC50 (C150 protein; [2]): 1 to 100 µM
EC50 (HBV): 0.0001 to 0.1 µM
CC50 at 4 days [1]: > 30 µM

C[C@@H](NS(=O)(=O)c1c(Cl)c(C(=O)Nc2ccnc(Cl)c2)n2c1C=CCC2)C(F)(F)F [Compound 30c]
IC50 (C150 protein): 1 to 100 µM
EC50 (HBV): 0.0001 to 0.1 µM
CC50 at 4 days [1]: > 30 µM

C[C@@H](NS(=O)(=O)c1c(Cl)c(C(=O)Nc2cc(F)c(F)c(F)c2)n2c1C=CC2)C(F)(F)F [Compound 10b]
IC50 (C150 protein): 1 to 100 µM
EC50 (HBV): 0.0001 to 0.1 µM
CC50 at 4 days [1]: > 30 µM

CC(CO)NS(=O)(=O)c1c(Cl)c(C(=O)Nc2ccc(F)c(C#N)c2)n2c1CCC2 (stereo not drawn) [Compound 20dd]
IC50 (C150 protein; [2]): 1 to 100 µM
EC50 (HBV): 0.1 to 1 µM
CC50 at 4 days [1]: > 30 µM

CC(NS(=O)(=O)c1c(Cl)c(C(=O)Nc2ccnc(Cl)c2)n2c1C=CC2)C(F)(F)F (stereo not drawn) [Compound 10e]
IC50 (C150 protein; [2]): 1 to 100 µM
EC50 (HBV): 0.1 to 1 µM
CC50 at 4 days [1]: > 30 µM

Cc1c(S(=O)(=O)NC2C3CCC2CC(O)(CO)C3)c2n(c1C(=O)Nc1ccc(F)c(F)c1)CC=C2 (stereo not drawn) [Compound 10mm]
IC50 (C150 protein; [2]): 1 to 100 µM
EC50 (HBV): 0.1 to 1 µM
CC50 at 4 days [1]: > 30 µM

CC(NS(=O)(=O)c1c(Cl)c(C(=O)Nc2cc(F)c(F)c(F)c2)n2c1CCC2)C(F)(F)F (stereo not drawn) [Compound 20b]
IC50 (C150 protein): < 1 µM
EC50 (HBV): 0.0001 to 0.1 µM
CC50 at 4 days [1]: > 30 µM

Cc1c(S(=O)(=O)NC(C)C(F)(F)F)c2n(c1C(=O)Nc1ccc(F)c(F)c1)CCCC2 (stereo not drawn) [Compound 40e]
IC50 (C150 protein; [2]): 1 to 100 µM
EC50 (HBV): 0.0001 to 0.1 µM
CC50 at 4 days [1]: > 30 µM

C[C@@H](NS(=O)(=O)c1c(Cl)c(C(=O)Nc2ccc(F)c(F)c2)n2c1CCCCC2)C(F)(F)F [Compound 60a]
IC50 (C150 protein; [2]): > 100 µM
EC50 (HBV): 0.0001 to 0.1 µM
CC50 at 4 days [1]: > 30 µM

Cc1c(S(=O)(=O)NC(C)CO)c2n(c1C(=O)Nc1cc(F)nc(C#N)c1)CCC2 (stereo not drawn) [Compound 20jj]
IC50 (C150 protein; [2]): 1 to 100 µM
EC50 (HBV): 0.1 to 1 µM
CC50 at 4 days [1]: > 30 µM

Cc1c(NC(=O)NC(C)C(F)(F)F)c2n(c1C(=O)Nc1ccnc(Cl)c1)CCC2 (stereo not drawn) [Compound 100d]
IC50 (C150 protein): 1 to 100 µM
EC50 (HBV): 0.0001 to 0.1 µM
CC50 at 4 days [1]: > 30 µM

C[C@@H](NS(=O)(=O)c1c(Cl)c(C(=O)Nc2ccc(F)c(F)c2)n2c1C=CCC2)C(F)(F)F [Compound 30a]
IC50 (C150 protein; [2]): < 1 µM
EC50 (HBV): 0.0001 to 0.1 µM
CC50 at 4 days [1]: > 30 µM

CC(NS(=O)(=O)c1c2[nH]ccc2c(C(=O)Nc2ccc(F)c(C#N)c2)n1C)C(F)(F)F (stereo not drawn) [Compound 80b]
IC50 (C150 protein; [2]): 1 to 100 µM
EC50 (HBV): 0.1 to 1 µM
CC50 at 4 days [1]: > 30 µM

C[C@@H](NS(=O)(=O)c1c(Cl)c(C(=O)Nc2ccc(F)c(C#N)c2)n2c1CCCC2)C(F)(F)F [Compound 40b]
IC50 (C150 protein): 1 to 100 µM
EC50 (HBV): 0.0001 to 0.1 µM
CC50 at 4 days [1]: > 30 µM

CC(CO)NS(=O)(=O)c1c(Cl)c(C(=O)Nc2ccc(F)c(F)c2)n2c1CCC2 (stereo not drawn) [Compound 20cc]
IC50 (C150 protein; [2]): 1 to 100 µM
EC50 (HBV): 0.1 to 1 µM
CC50 at 4 days [1]: > 30 µM

C[C@@H](NS(=O)(=O)c1c(Cl)c(C(=O)Nc2ccc(F)c(C#N)c2)n2c1C=CCC2)C(F)(F)F [Compound 30b]
IC50 (C150 protein): 1 to 100 µM
EC50 (HBV): 0.0001 to 0.1 µM
CC50 at 4 days [1]: > 30 µM

CC(CO)NS(=O)(=O)c1c(Cl)c(C(=O)Nc2cc(F)nc(C#N)c2)n2c1CCC2 (stereo not drawn) [Compound 20ff]
IC50 (C150 protein; [2]): 1 to 100 µM
EC50 (HBV): 0.0001 to 0.1 µM
CC50 at 4 days [1]: > 30 µM

N#Cc1cc(NC(=O)c2c(Cl)c(S(=O)(=O)NC3C4CCC3CC(O)(CO)C4)c3n2CCC3)cc(F)n1 (stereo not drawn) [Compound 20ll]
IC50 (C150 protein; [2]): 1 to 100 µM
EC50 (HBV): 0.0001 to 0.1 µM
CC50 at 4 days [1]: > 30 µM

Cc1c(S(=O)(=O)NC2C3CCC2CC(O)(c2cc(-c4ccccc4)on2)C3)c2n(c1C(=O)Nc1cc(F)nc(C#N)c1)CCC=C2 (stereo not drawn) [Compound 30t]
IC50 (C150 protein; [2]): 1 to 100 µM
EC50 (HBV): 0.1 to 1 µM
CC50 at 4 days [1]: > 30 µM

C[C@@H](NS(=O)(=O)c1c(Cl)c(C(=O)Nc2ccc(F)c(F)c2)n2c1C=CCCC2)C(F)(F)F [Compound 50a]
IC50 (C150 protein; [2]): 1 to 100 µM
EC50 (HBV): 0.0001 to 0.1 µM
CC50 at 4 days [1]: > 30 µM

Cn1c(C(=O)Nc2cc(F)nc(C#N)c2)c2cc[nH]c2c1S(=O)(=O)NC1(C)COC1 [Compound 80f]
IC50 (C150 protein; [2]): 1 to 100 µM
EC50 (HBV): 0.0001 to 0.1 µM
CC50 at 4 days [1]: > 30 µM

C[C@@H](NS(=O)(=O)c1c(Cl)c(C(=O)Nc2ccc(F)c(F)c2)n2c1C=CC2)C(F)(F)F [Compound 10a]
IC50 (C150 protein; [2]): 1 to 100 µM
EC50 (HBV): 0.0001 to 0.1 µM
CC50 at 4 days [1]: > 30 µM

CC(CO)NC(=O)Nc1c(Cl)c(C(=O)Nc2cc(F)nc(C#N)c2)n2c1CCCC2 (stereo not drawn) [Compound 100p]
IC50 (C150 protein; [2]): 1 to 100 µM
EC50 (HBV): 0.0001 to 0.1 µM
CC50 at 4 days [1]: > 30 µM

C[C@@H](NS(=O)(=O)Nc1c(Cl)c(C(=O)Nc2ccc(F)c(F)c2)n2c1CCC2)C(F)(F)F [Compound 90a]
IC50 (C150 protein; [2]): 1 to 100 µM
EC50 (HBV): 0.0001 to 0.1 µM
CC50 at 4 days [1]: > 30 µM

C[C@@H](NS(=O)(=O)c1c(Cl)c(C(=O)Nc2ccc(F)c(F)c2)n2c1CCCC2)C(F)(F)F [Compound 40a]
IC50 (C150 protein; [2]): < 1 µM
EC50 (HBV): 0.0001 to 0.1 µM
CC50 at 4 days [1]: > 30 µM

C[C@@H](NS(=O)(=O)c1c2[nH]ccc2c(C(=O)Nc2ccc(F)c(F)c2)n1C)C(F)(F)F [Compound 80a]
IC50 (C150 protein; [2]): 1 to 100 µM
EC50 (HBV): 0.1 to 1 µM
CC50 at 4 days [1]: > 30 µM

CC(NS(=O)(=O)c1c(Cl)c(C(=O)Nc2cc(F)nc(C#N)c2)n2c1C=CC2)C(F)(F)F (stereo not drawn) [Compound 10f]
IC50 (C150 protein): 1 to 100 µM
EC50 (HBV): 0.0001 to 0.1 µM
CC50 at 4 days [1]: > 30 µM

CC(NS(=O)(=O)Nc1c(Cl)c(C(=O)Nc2ccnc(Cl)c2)n2c1CCC2)C(F)(F)F (stereo not drawn) [Compound 90b]
IC50 (C150 protein; [2]): 1 to 100 µM
EC50 (HBV): 0.0001 to 0.1 µM
CC50 at 4 days [1]: > 30 µM
